Data published in PubChem BioAssay AID192 (DTP/NCI, 2004).
Values joined by “and” are separate entries in the source; they are usually repeats but may differ in a detail not shown here. Equal entries are not always repeated. Inconclusive results and toxic doses are left out.

Test system: BDF1 mice, B16 melanoma ip, median survival T/C
Test: NCI In Vivo Anticancer Drug Screen. Data for tumor model B16 Melanoma (intraperitoneal) in B6D2F1 (BDF1) mice
Details: endpoint: median survival time, higher = longer survival
Summary of the method: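 Values are ratios of treated (T) to vehicle-control (C) measurements of survival or tumor size in tumor-bearing mice.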

[1] = dose: 0.1 mg/kg/injection, schedule: Q01DX009 (ip), vehicle: saline
[2] = dose: 50.0 mg/kg/injection, schedule: Q04DX003 (ip), vehicle: saline with Tween-80
[3] = dose: 100.0 mg/kg/injection, schedule: Q04DX003 (ip), vehicle: saline with Tween-80
[4] = dose: 200.0 mg/kg/injection, schedule: Q04DX003 (ip), vehicle: saline with Tween-80
[5] = dose: 50.0 mg/kg/injection, schedule: Q01DX009 (ip), vehicle: saline with Tween-80
[6] = dose: 100.0 mg/kg/injection, schedule: Q01DX009 (ip), vehicle: saline with Tween-80
[7] = dose: 200.0 mg/kg/injection, schedule: Q01DX009 (ip), vehicle: saline with Tween-80
[8] = dose: 12.5 mg/kg/injection, schedule: Q01DX009 (ip), vehicle: Klucel (hydroxypropylcellulose) (HPC)
[9] = dose: 25.0 mg/kg/injection, schedule: Q01DX009 (ip), vehicle: Klucel (hydroxypropylcellulose) (HPC)
[10] = dose: 50.0 mg/kg/injection, schedule: Q01DX009 (ip), vehicle: Klucel (hydroxypropylcellulose) (HPC)
[11] = dose: 100.0 mg/kg/injection, schedule: Q01DX009 (ip), vehicle: Klucel (hydroxypropylcellulose) (HPC)
[12] = dose: 200.0 mg/kg/injection, schedule: Q01DX009 (ip), vehicle: Klucel (hydroxypropylcellulose) (HPC)
[13] = dose: 1.0 mg/kg/injection, schedule: Q01DX009 (ip), vehicle: saline

Compound: CN1C(=O)CN=C(c2ccccc2)c2cc(Cl)ccc21
- T/C (dose: 0.02 mg/kg/injection, schedule: Q01DX009 (ip), vehicle: Klucel (hydroxypropylcellulose) (HPC)): 95 % of control
- T/C (dose: 0.03 mg/kg/injection, schedule: Q01DX009 (ip), vehicle: saline): 100 % of control
- T/C (dose: 0.04 mg/kg/injection, schedule: Q01DX009 (ip), vehicle: Klucel (hydroxypropylcellulose) (HPC)): 233 % of control
- T/C (dose: 0.05 mg/kg/injection, schedule: Q01DX009 (ip), vehicle: saline): 97 % of control
- T/C (dose: 0.09 mg/kg/injection, schedule: Q01DX009 (ip), vehicle: Klucel (hydroxypropylcellulose) (HPC)): 104 % of control
- T/C [1]: 91 % of control
- T/C (dose: 0.19 mg/kg/injection, schedule: Q01DX009 (ip), vehicle: Klucel (hydroxypropylcellulose) (HPC)): 109 % of control
- T/C (dose: 0.39 mg/kg/injection, schedule: Q01DX009 (ip), vehicle: Klucel (hydroxypropylcellulose) (HPC)): 91 % of control and 105 % of control
- T/C (dose: 5.0 micrograms/kg/injection, schedule: Q01DX009 (ip), vehicle: Klucel (hydroxypropylcellulose) (HPC)): 94 % of control
- T/C (dose: 10.0 micrograms/kg/injection, schedule: Q01DX009 (ip), vehicle: Klucel (hydroxypropylcellulose) (HPC)): 93 % of control
- T/C (dose: 20.0 micrograms/kg/injection, schedule: Q01DX009 (ip), vehicle: Klucel (hydroxypropylcellulose) (HPC)): 86 % of control
- T/C (dose: 40.0 micrograms/kg/injection, schedule: Q01DX009 (ip), vehicle: Klucel (hydroxypropylcellulose) (HPC)): 94 % of control
- T/C (dose: 90.0 micrograms/kg/injection, schedule: Q01DX009 (ip), vehicle: Klucel (hydroxypropylcellulose) (HPC)): 92 % of control

Compound: O=c1c(O)c(-c2ccc(O)c(O)c2)oc2cc(O)cc(O)c12
- T/C (dose: 25.0 mg/kg/injection, schedule: Q02DX009 (ip), vehicle: saline): 89 % of control
- T/C (dose: 50.0 mg/kg/injection, schedule: Q02DX009 (ip), vehicle: saline): 88 % of control
- T/C (dose: 100.0 mg/kg/injection, schedule: Q02DX009 (ip), vehicle: saline): 93 % of control
- T/C (dose: 200.0 mg/kg/injection, schedule: Q02DX009 (ip), vehicle: saline with Tween-80): 86 % of control
- T/C (dose: 200.0 mg/kg/injection, schedule: Q02DX009 (ip), vehicle: saline): 87 % of control

Compound: c1ccc(C2CN3CCSC3=N2)cc1 (stereo not drawn)
- T/C (dose: 1.56 mg/kg/injection, schedule: Q01DX009 (ip), vehicle: saline): 103 % of control
- T/C (dose: 3.12 mg/kg/injection, schedule: Q01DX009 (ip), vehicle: saline): 104 % of control
- T/C (dose: 6.25 mg/kg/injection, schedule: Q01DX009 (ip), vehicle: saline): 96 % of control
- T/C (dose: 12.5 mg/kg/injection, schedule: Q01DX009 (ip), vehicle: saline): 94 % of control
- T/C (dose: 25.0 mg/kg/injection, schedule: Q01DX009 (ip), vehicle: saline): 100 % of control

Compound: CC(=O)OCC(=O)[C@@]12OC(C)(C)O[C@@H]1C[C@H]1[C@@H]3CC(C=O)=C4C=C(OCCCl)CC[C@]4(C)[C@@]3(F)[C@@H](O)C[C@@]12C
- T/C (dose: 25.0 mg/kg/injection, schedule: Q04DX003 (ip), vehicle: saline with Tween-80): 111 % of control
- T/C [2]: 112 % of control
- T/C [3]: 115 % of control
- T/C [4]: 110 % of control
- T/C (dose: 400.0 mg/kg/injection, schedule: Q04DX003 (ip), vehicle: saline with Tween-80): 109 % of control

Compound: CCC(C)C#N (stereo not drawn)
- T/C (dose: 5.0 mg/kg/injection, schedule: Q01DX009 (ip), vehicle: saline): 97 % of control
- T/C (dose: 10.0 mg/kg/injection, schedule: Q01DX009 (ip), vehicle: saline): 95 % of control
- T/C (dose: 20.0 mg/kg/injection, schedule: Q01DX009 (ip), vehicle: saline): 100 % of control

Compound: O/N=C\c1ccc(/C=N/O)cc1
- T/C [2]: 119 % of control
- T/C [3]: 119 % of control
- T/C [4]: 111 % of control

Compound: CC1(C)C=C(C(Br)c2ccc(Cl)cc2)C(=O)c2ccccc21 (stereo not drawn)
- T/C [5]: 103 % of control
- T/C [6]: 106 % of control
- T/C [7]: 99 % of control
- T/C (dose: 400.0 mg/kg/injection, schedule: Q01DX009 (ip), vehicle: saline with Tween-80): 97 % of control

Compound: N#Cc1c(F)c(F)c(C#N)c(F)c1F
- T/C (dose: 1.25 mg/kg/injection, schedule: Q01DX009 (ip), vehicle: saline with Tween-80): 90 % of control
- T/C (dose: 2.5 mg/kg/injection, schedule: Q01DX009 (ip), vehicle: saline with Tween-80): 90 % of control

Compound: CC(C)(c1ccccc1)c1ccc(O)cc1
- T/C (dose: 37.5 mg/kg/injection, schedule: Q01DX009 (ip), vehicle: other): 97 % of control
- T/C (dose: 75.0 mg/kg/injection, schedule: Q01DX009 (ip), vehicle: other): 100 % of control
- T/C (dose: 150.0 mg/kg/injection, schedule: Q01DX009 (ip), vehicle: other): 94 % of control
- T/C (dose: 150.0 mg/kg/injection, schedule: Q04DX003 (ip), vehicle: saline + alcohol): 90 % of control
- T/C (dose: 300.0 mg/kg/injection, schedule: Q01DX009 (ip), vehicle: other): 94 % of control
- T/C (dose: 300.0 mg/kg/injection, schedule: Q04DX003 (ip), vehicle: saline + alcohol): 104 % of control
- T/C (dose: 600.0 mg/kg/injection, schedule: Q04DX003 (ip), vehicle: saline + alcohol): 95 % of control

Compound: CC12CC(C(=O)O)C3(O)CC(C)(C1)CC(C)(C2)C3 (stereo not drawn) (tested in a mixture with another compound)
- T/C [8]: 97 % of control and 101 % of control
- T/C [9]: 93 % of control and 107 % of control
- T/C [10]: 94 % of control and 96 % of control
- T/C [11]: 96 % of control and 103 % of control
- T/C [12]: 94 % of control and 98 % of control

Compound: O=C(Nc1cccc(C(F)(F)F)c1)c1cccc(C(=O)Nc2cccc(C(F)(F)F)c2)c1
- T/C [8]: 101 % of control
- T/C [9]: 106 % of control
- T/C [10]: 108 % of control

Compound: C#CCOCC(CCl)OC(N)=O (stereo not drawn)
- T/C [2]: 111 % of control
- T/C [3]: 105 % of control
- T/C [4]: 108 % of control

Compound: NC(=S)SCCC(=O)O
- T/C [11]: 96 % of control
- T/C [12]: 86 % of control

Compound: CCCC1CC[N-]CC1.CCCC1CC[N-]CC1.[Br][Pt+2]([Br])([Br])[Br]
- T/C (dose: 3.13 mg/kg/injection, schedule: Q01DX009 (ip), vehicle: water): 98 % of control
- T/C (dose: 6.25 mg/kg/injection, schedule: Q01DX009 (ip), vehicle: water): 102 % of control
- T/C (dose: 12.5 mg/kg/injection, schedule: Q01DX009 (ip), vehicle: water): 97 % of control

Compound: CC(=O)OC1C(=O)C(O)C(C)OC1O[C@@H]1C[C@@]2(C)[C@@H]3CC=C4[C@@H](C[C@H](O)C(=O)C4(C)C)[C@]3(C)C(=O)C[C@]2(C)[C@H]1[C@@](C)(O)C(=O)/C=C/C(C)(C)O (stereo partly drawn)
- T/C [13]: 92 % of control
- T/C (dose: 2.0 mg/kg/injection, schedule: Q01DX009 (ip), vehicle: saline): 92 % of control

Compound: O=S(=O)([O-])NC1CCCCC1.O=S(=O)([O-])NC1CCCCC1.[Hg+2].[Hg+2].[Hg+2].[O-2].[O-2]
- T/C (dose: 0.12 mg/kg/injection, schedule: Q01DX009 (ip), vehicle: saline): 98 % of control
- T/C (dose: 0.25 mg/kg/injection, schedule: Q01DX009 (ip), vehicle: saline): 105 % of control
- T/C (dose: 0.5 mg/kg/injection, schedule: Q01DX009 (ip), vehicle: saline): 98 % of control
- T/C [13]: 90 % of control

Compound: CS(=O)(=O)OCCN(CCOS(C)(=O)=O)c1ccc(N=O)cc1
- T/C [1]: 150 % of control
- T/C (dose: 0.2 mg/kg/injection, schedule: Q01DX009 (ip), vehicle: saline): 184 % of control and 204 % of control
- T/C (dose: 0.3 mg/kg/injection, schedule: Q01DX009 (ip), vehicle: saline): 175 % of control

Compound: Cc1c2cc3c(c1O)C(=O)CC(O3)c1ccc(O)c(c1)-c1cccc(c1O)C(=O)OCC1OC(O2)C(O)C(O)C1O (stereo not drawn)
- T/C (dose: 0.13 mg/kg/injection, schedule: Q01DX009 (ip), vehicle: Klucel (hydroxypropylcellulose) (HPC)): 93 % of control
- T/C (dose: 0.25 mg/kg/injection, schedule: Q01DX009 (ip), vehicle: Klucel (hydroxypropylcellulose) (HPC)): 95 % of control
- T/C (dose: 0.5 mg/kg/injection, schedule: Q01DX009 (ip), vehicle: Klucel (hydroxypropylcellulose) (HPC)): 89 % of control
- T/C (dose: 1.0 mg/kg/injection, schedule: Q01DX009 (ip), vehicle: Klucel (hydroxypropylcellulose) (HPC)): 88 % of control

Compound: Nc1cc2nc3ccccc3sc-2cc1=O
- T/C [5]: 93 % of control
- T/C [6]: 98 % of control
- T/C [7]: 94 % of control

Compound: COc1ccc2c(c1)C(OC)C1c3c(cc4c(c3-2)OCO4)CCN1C (stereo not drawn)
- T/C (dose: 1.0 mg/kg/injection, schedule: Q01DX009 (ip), vehicle: acid diluted with saline): 123 % of control
- T/C (dose: 2.0 mg/kg/injection, schedule: Q01DX009 (ip), vehicle: acid diluted with saline): 89 % of control

Compound: Cc1ccn(C(N)=O)n1
- T/C [11]: 93 % of control
- T/C [12]: 109 % of control
